Experimental data: US8937167B2 (Washington University, priority 2009, dated 2015)
“Also recorded” adds a separate entry of the source.

Tested on: UTI89
Test: Enumeration of bladder IBCs by LacZ staining in infected mice
Format: in vivo, E. coli (UPEC); host C3H/HeN mouse
Conditions: UTI89 pre-incubated with mannoside (as little as 10 μM); 6 hpi
Description: After invasion, UPEC are able to rapidly replicate to form IBCs, thus dramatically expanding in numbers. After maturation of the IBC, bacteria are able to disperse from the biomass and spread to neighboring cells to expand the buildup in bacterial numbers via next generation IBC. The ability of mannosides to block IBC formation was evaluated based on LacZ staining of whole mount bladders, a protocol developed to enumerate IBCs. Whole bladder titers were also determined by quantifying colony forming units (CFUs) at 6 hours post-infection and later time points as test compounds were further developed.
(§1) Enumeration of bladder IBCs. For bacterial pretreatment experiments, mannoside was added to the bacterial suspension and incubated for 20 min. For animal pretreatment experiments, mannoside ZFH-2056 was administered either IP (5 mg/kg) or orally (100 mg/kg) 30 min prior to inoculation with UTI89. To accurately count the number of IBCs, mice were sacrificed 6 hpi and bladders were aseptically removed, bisected, splayed on silicone plates and fixed in 2% paraformaldehyde (v/v). IBCs, readily discernable as punctate violet spots, were quantified by LacZ staining of whole bladders.
as §1, with “For” for “Enumeration of bladder IBCs. For bacterial pretreatment experiments, mannoside was added to the bacterial suspension and incubated for 20 min. For”

CNC(=O)c1cc(C(=O)NC)cc(-c2ccc(O[C@H]3O[C@H](CO)[C@@H](O)[C@H](O)[C@@H]3O)cc2)c1 [ZFH-2056]
IBC formation: most significant reduction in IBCs; also recorded: reduced IBC formation
